# Reference: patent US20090023718A1 (Aton Pharma, Inc., priority 2003, published 2009)
# Target: T1, histone deacetylase, subtype 1 (HDAC1) (Homo sapiens, UniProt Q13547)
# T1 construct: Flag; made in house
# Test: HDAC1-Flag assay (in vitro fluorescent deacetylation assay)
# Format: biochemical
# Settings: Table 1, compounds of formula II; epitope-tagged human HDAC1 complex, substrate at Km; mean ± spread (N); read-out: HDAC Inhibition (IC50) nm
# Experimental: Novel compounds were tested for their ability to inhibit histone deacetylase, subtype 1 (HDAC1) using an in vitro deacetylation assay. The enzyme source for this assay was an epitope-tagged human HDAC1 complex immuno-purified from stably expressing mammalian cells. The substrate consisted of a commercial product containing an acetylated lysine side chain (BIOMOL Research Laboratories, Inc., Plymouth Meeting, Pa.). Upon deacetylation of the substrate by incubation with the purified HDAC1 complex, a fluorophore is produced that is directly proportional to the level of deacetylation.
# T1 sequence (Q13547 whole entry): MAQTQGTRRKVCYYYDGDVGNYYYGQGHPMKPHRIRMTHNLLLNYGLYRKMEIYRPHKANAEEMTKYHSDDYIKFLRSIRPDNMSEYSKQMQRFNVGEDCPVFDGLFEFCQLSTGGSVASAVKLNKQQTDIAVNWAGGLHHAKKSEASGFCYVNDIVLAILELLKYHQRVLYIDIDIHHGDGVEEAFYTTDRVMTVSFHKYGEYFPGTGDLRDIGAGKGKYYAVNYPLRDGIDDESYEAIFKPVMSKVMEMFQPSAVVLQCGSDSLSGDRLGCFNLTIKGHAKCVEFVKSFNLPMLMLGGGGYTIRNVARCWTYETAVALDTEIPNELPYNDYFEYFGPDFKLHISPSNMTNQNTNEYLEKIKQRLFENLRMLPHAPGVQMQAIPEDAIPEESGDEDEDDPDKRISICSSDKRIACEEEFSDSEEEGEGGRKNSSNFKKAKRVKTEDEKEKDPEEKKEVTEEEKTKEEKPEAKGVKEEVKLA
row,IC50,SMILES
1,39.5 ± 37.4 nM,"O=C(CCCCCC(=O)N(CC(=O)NCCc1c[nH]c2ccccc12)CC(=O)NCCc1c[nH]c2ccccc12)NO [Compound 33, Heptanedioic acid bis-{[2-(1H-indol-3-yl)-ethylcarbamoyl]-methyl}-amide hydroxyamide]"
2,91.5 ± 58.6 nM,"O=C(CCCCCC(=O)N(CC(=O)Nc1ccc(OCc2ccccc2)cc1)CC(=O)Nc1ccc(OCc2ccccc2)cc1)NO [Compound 16, Heptanedioic acid bis-[(4-benzyloxy-phenylcarbamoyl)-methyl]-amide hydroxyamide]"
3,40 ± 8.4 nM,"O=C(CCCCCC(=O)N(CC(=O)Nc1ccc(N2CCOCC2)cc1)CC(=O)Nc1ccc(N2CCOCC2)cc1)NO [Compound 27, Heptanedioic acid bis-[(4-morpholin-4-yl-phenylcarbamoyl)-methyl]-amide hydroxyamide]"
4,19 nM,"O=C(CCCCCC(=O)N(CC(=O)Nc1ccc2c(c1)OCCO2)CC(=O)Nc1ccc2c(c1)OCCO2)NO [Compound 5, Heptanedioic acid bis-[(2,3-dihydro-benzo[1,4]dioxin-6-ylcarbamoyl)-methyl]-amide hydroxyamide]"
5,247 ± 99.9 nM,"O=C(CCCCCCC(=O)N(CC(=O)NCc1ccccc1)CC(=O)NCc1ccccc1)NO [Compound 20, Octanedioic acid bis-(benzylcarbamoyl-methyl)-amide hydroxyamide]"
6,1 nM,"O=C(CCCCCC(=O)N(CC(=O)Nc1ccc2[nH]ncc2c1)CC(=O)Nc1ccc2[nH]ncc2c1)NO [Compound 1, Heptanedioic acid bis-[(1H-indazol-5-ylcarbamoyl)-methyl]-amide hydroxyamide]"

# Same assay, conditions: Table 2, compounds of formula III; epitope-tagged human HDAC1 complex, substrate at Km; mean ± spread (N); read-out: HDAC Inhibition (IC50) nm
row,IC50,SMILES
1,2280 ± 889 nM,"O=C(CCCCCN(CC(=O)N1CCOCC1)CC(=O)N1CCOCC1)NO [Compound 57, 6-[Bis-(2-morpholin-4-yl-2-oxo-ethyl)-amino]-hexanoic acid hydroxyamide]"
2,86.5 ± 26.1 nM,"O=C(CCCCCCCN(CC(=O)Nc1ccccc1)CC(=O)Nc1ccccc1)NO [Compound 43, 8-(Bis-phenylcarbamoylmethyl-amino)-octanoic acid hydroxyamide]"
3,311 ± 24.7 nM,"O=C(CCCCCN(CC(=O)NCC1CCCCC1)CC(=O)NCC1CCCCC1)NO [Compound 52, 6-{Bis-[(cyclohexylmethyl-carbamoyl)-methyl]-amino}-hexanoic acid hydroxyamide]"
4,133 ± 59.3 nM,"O=C(CCCCN(CC(=O)Nc1ccccc1)CC(=O)Nc1ccccc1)NO [Compound 44, 5-(Bis-phenylcarbamoylmethyl-amino)-pentanoic acid hydroxyamide]"
5,187 ± 10.6 nM,"O=C(CCCCCN(CC(=O)NCc1ccccc1)CC(=O)NCc1ccccc1)NO [Compound 48, 6-[Bis-(benzylcarbamoyl-methyl)-amino]-hexanoic acid hydroxyamide]"
6,2080 ± 383 nM,"O=C(CCCCCN(CC(=O)N1CCCCC1)CC(=O)N1CCCCC1)NO [Compound 56, 6-[Bis-(2-oxo-2-piperidin-1-yl-ethyl)-amino]-hexanoic acid hydroxyamide]"

# Same assay, conditions: Table 3, compounds of formula IV; epitope-tagged human HDAC1 complex, substrate at Km; mean ± spread (N); read-out: HDAC Inhibition (IC50) nm
row,IC50,SMILES
1,1220 ± 31.1 nM,"O=C(CCCC(=O)N1CCN(c2ccccc2)CC1)NO [Compound 71, 5-Oxo-5-(4-phenyl-piperazin-1-yl)-pentanoic acid hydroxyamide]"
2,462 ± 51.6 nM,O=C(CCCCCCC(=O)N(Cc1ccccc1)Cc1ccccc1)NO [Compound 62]
3,44300 nM,O=C(CCC(=O)N1CCN(c2ccccc2)CC1)NO [Compound 66]
4,13000 nM,O=C(CCC(=O)N1CCN(c2cccc(Cl)c2)CC1)NO [Compound 69]
5,24000 nM,CC(=O)c1ccc(N2CCN(C(=O)CCC(=O)NO)CC2)cc1 [Compound 70]
6,387 ± 80.6 nM,O=C(CCCCCCC(=O)N(CCc1c[nH]c2ccccc12)Cc1ccc(Br)cc1)NO [Compound 60]
7,475 ± 9.1 nM,"O=C(CCCCC(=O)N1CCN(c2ccc(Cl)cc2)CC1)NO [Compound 76, 6-[4-(4-Chloro-phenyl)-piperazin-1-yl]-6-oxo-hexanoic acid hydroxyamide]"
8,169 ± 30.4 nM,"O=C(CCCCCCCCC(=O)N1CCN(c2ccc(Cl)cc2)CC1)NO [Compound 79, 10-[4-(4-Chloro-phenyl)-piperazin-1-yl]-10-oxo-decanoic acid hydroxyamide]"
